# Assay results published in article PMC12584634, “Carglumic acid and mesalazine as potential anti-mycobacterial agents: a spectroscopic study for repurposing drugs against Mycobacterium tuberculosis targeting its essential enzyme ThyX” (Microbiology Spectrum, 2025).
# Biological target: ThyX (Rv2754c), flavin-dependent thymidylate synthase (Mycobacterium tuberculosis, UniProt P9WG57)
# Assay: intrinsic fluorescence quenching, modified Stern-Volmer
# Type: binding
# Details: 303 K, 5 µM protein, n ~1, double-log
# Text: intrinsic fluorescence quenching, modified Stern-Volmer on ThyX (Rv2754c), flavin-dependent thymidylate synthase
# ThyX (Rv2754c), flavin-dependent thymidylate synthase, sequence (P9WG57 whole entry, looked up): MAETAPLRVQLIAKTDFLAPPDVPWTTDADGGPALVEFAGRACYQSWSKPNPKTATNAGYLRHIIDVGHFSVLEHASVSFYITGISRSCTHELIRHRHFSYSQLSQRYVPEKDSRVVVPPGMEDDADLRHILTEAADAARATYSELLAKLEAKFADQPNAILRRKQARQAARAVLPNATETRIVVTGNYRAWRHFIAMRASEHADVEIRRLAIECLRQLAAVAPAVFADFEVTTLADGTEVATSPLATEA
smiles,measurement,setting,value
NC(=O)N[C@@H](CCC(=O)O)C(=O)O [carglumic acid],Ka (× 10^6 mol^-1),"PBS pH 7.4, excitation 280 nm",4.28 × 10^6 mol^−1
Nc1ccc(O)c(C(=O)O)c1 [mesalazine],Ka (× 10^6 mol^-1),"PBS pH 7.4, excitation 280 nm",4.73 × 10^6 mol^−1
"Nc1ccc(C(=O)O)c(O)c1 [para-amino salicylic acid, reference compound]",Ka (× 10^6 mol^-1),"positive control, text prints unit as M^−1s^−1",3.44 × 10^6 mol^−1
